The text below walks through data of patent US11498920B2, “4-(1H-imidazol-5-yl)-1H-pyrrolo[2, 3-b] pyridines for use in the treatment of leukaemias, lymphomas and solid tumors” (MASARYKOVA UNIVERZITA, priority 2018, dated 2022).

SMILES strings stand for the structures.

Broadly, the viability is a read-out of living cells in per cent, often relative to untreated cells.

For series [1], the system named is primary CLL cells. The series is described as follows: Specificity of cytotoxic activity, TMRE viability, primary CLL cells (Example II.4).
Series [2] deals with primary CLL cells. The series is described as follows: Cytotoxicity, TMRE flow cytometry viability, primary CLL cells (Example II.1). It counts as cell-based. The conditions noted are these: Homo sapiens, CLL cell, 6 hours, TMRE positive cells normalized to control, ratio to PF670462, <1 = higher cytotoxicity than PF670462, read-out: Viability of cells, Compound of formula I (100 μM), relative to PF670462 (100 μM), CLL primary cells.

In series [3] the test system is Maver-1 cells (mantle cell lymphoma). The experiment in a line: Cytotoxicity, TMRE flow cytometry viability, Maver-1 cells (Example II.1). It counts as cell-based. The conditions noted are these: Homo sapiens, Maver1, 24 hours, TMRE positive cells normalized to control, ratio to PF670462, <1 = higher cytotoxicity than PF670462, read-out: Viability of cells, Compound of formula I (100 μM), relative to PF670462 (100 μM), Maver-1 cells (mantle cell lymphoma). For orientation: A flow cytometer gives signals particle by particle.

For a further series, the system named is BL-41. The series is described as follows: Cytotoxicity on panel of cell lines, TMRE viability (Example II.2). In kind it is cell-based. Conditions: Homo sapiens, 24 hours, mean, control = 1, read-out: cell viability relative to control, BL-41 (BL). The method, boiled down: (§1)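 Viability, measured by TMRE, is reported as the mean ratio of inhibitor-treated cells to DMSO controls. Treatment: 30 μM compound, 24 hours, standard culture conditions.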

For the next series, the system named is K562. The description is as above. It counts as cell-based. The conditions noted are these: Homo sapiens, 24 hours, mean, control = 1, read-out: cell viability relative to control, K562 (CML). The method, boiled down: as §1
For a further series, the system named is MEC-1. The description is as above. In kind it is cell-based. Conditions: Homo sapiens, MEC1, 24 hours, mean, control = 1, read-out: cell viability relative to control, MEC-1 (CLL). The essentials:
as §1

A further series relates to WSU-NHL. The description is as above. It counts as cell-based. The conditions noted are these: Homo sapiens, 24 hours, mean, control = 1, read-out: cell viability relative to control, WSU-NHL (FL). The essentials:
as §1

For another series, the system named is Maver1. The series is described as above. In kind it is cell-based. The conditions noted are these: Homo sapiens, 24 hours, mean, control = 1, read-out: cell viability relative to control, Maver1 (MCL). The method, boiled down: as §1
The subject of the next series is MDA-MB-231. The description is as above. It counts as cell-based. The conditions noted are these: Homo sapiens, 24 hours, mean, control = 1, read-out: cell viability relative to control, MDA-MB-231 (breast cancer). The essentials:
as §1

For a further series, the system named is SUDHL. The series is described as above. In kind it is cell-based. The conditions noted are these: 24 hours, mean, control = 1, read-out: cell viability relative to control, SUDHL (DLBCL). The method, boiled down:
as §1

In a further series the test system is PANC1. The description is as above. In kind it is cell-based. The conditions noted are these: Homo sapiens, PANC-1, 24 hours, mean, control = 1, read-out: cell viability relative to control, PANC1 (pancreatic cancer). The essentials: as §1
A further series deals with MCF-7. The series is described as above. It counts as cell-based. The conditions noted are these: Homo sapiens, MCF7, 24 hours, mean, control = 1, read-out: cell viability relative to control, MCF-7 (breast cancer). The essentials: as §1
The subject of another series is PC3. Described as above. The conditions noted are these: Homo sapiens, PC-3, 24 hours, mean, control = 1, read-out: cell viability relative to control, PC3 (prostate cancer). It counts as cell-based. The method, boiled down:
as §1

The next series concerns primary CLL. The series is described as above. Conditions: Homo sapiens, 24 hours, mean, control = 1, read-out: cell viability relative to control, primary CLL. In kind it is cell-based.
In the next series the test system is MIA-PA-CA. The series is described as above. The conditions noted are these: Homo sapiens, MIA PaCa-2, 24 hours, mean, control = 1, read-out: cell viability relative to control, MIA-PA-CA (pancreatic cancer). It counts as cell-based. The essentials:
as §1

In another series the test system is A375. The description is as above. Conditions: Homo sapiens, A-375, 24 hours, mean, control = 1, read-out: cell viability relative to control, A375 (melanoma). In kind it is cell-based. The method, boiled down: as §1
Another series concerns Nalm16. Described as above. In kind it is cell-based. Conditions: 24 hours, mean, control = 1, read-out: cell viability relative to control, Nalm16 (ALL). The method, boiled down: as §1
The test system of a further series is HEPG2. The series is described as above. In kind it is cell-based. The conditions noted are these: Homo sapiens, 24 hours, mean, control = 1, read-out: cell viability relative to control, HEPG2 (hepatocellular carcinoma). The method, boiled down:
as §1

In the next series the test system is HL60. The description is as above. It counts as cell-based. Conditions: Homo sapiens, HL-60, 24 hours, mean, control = 1, read-out: cell viability relative to control, HL60 (AML). The essentials: as §1
The next series deals with Mino. Described as above. In kind it is cell-based. The conditions noted are these: Homo sapiens, 24 hours, mean, control = 1, read-out: cell viability relative to control, Mino (MCL). The essentials: as §1
The subject of the next series is OVCAR4. Described as above. It counts as cell-based. Conditions: Homo sapiens, OVCAR-4, 24 hours, mean, control = 1, read-out: cell viability relative to control, OVCAR4 (ovarian cancer). The essentials: as §1
The nature of series [4]: Specificity of cytotoxic activity, TMRE viability, primary nonmalignant control cells (Example II.4). In kind it is cell-based. Conditions: human, N = 4, read-out: Viability - mean % of control, Primary healthy cells.
In series [5] the test system is primary CLL cells. The conditions noted are these: human, 6 h, 30 µM.

In the case of `Nc1nccc(-c2c(-c3ccc(F)cc3)ncn2C2CCCCC2)n1` [PF670462, reference compound], the “induction of apoptosis in primary CLL cells or nonmalignant control (healthy) cells” value with primary CLL cells [1] (30 μM, 6 hours) is “not able to induce apoptosis”. Moreover, the “dose-dependent cytotoxic effect / apoptosis of primary CLL cells (FIG. 1)” value in the series on primary CLL cells [1] (6 h, indicated doses of inhibitors) was “lacks this effect”. For the same compound, the viability at 100 µM (in the series with primary CLL cells [2]; in [3]) was 100% each time. In addition, the viability at 30 µM was 82% in the series with BL-41; 97% in the series with K562; 92% in the series with MEC-1; 110% in the series on WSU-NHL; 85% with Maver1; 99% in the series on MDA-MB-231. Also, the viability at 30 µM in the series on SUDHL is 93%; with PANC1 it was 93%; in the series with MCF-7, 55%; in the series on PC3, 115%; with primary CLL, 103%; in the series with MIA-PA-CA, 104%. The viability at 30 µM was found to be 94% with A375; 94% in the series with Nalm16; 78% with HEPG2; 98% in the series on HL60; 84% with Mino; 95% with OVCAR4. The viability at 6 h, 30 µM in series [4] stood at 95.5%. Also, the “Viability - mean % of control, Primary CLL” value with primary CLL cells [5] is 98.3% (N = 8).
